How the values were obtained:
[1] = tested on: PDE II (c-GMP-stimulable); assay: Inhibition of the phosphodiesterases in vitro: PDE II; assay type: biochemical, porcine or bovine (myocardium); settings: ^3H cAMP substrate, 10^-6 mol/l unlabelled cGMP added; pH 7.5; 30 min
Procedure: (§1) The c-GMP-stimulable PDE II, the c-GMP-inhibitable PDE III and the cAMP-specific PDE IV were isolated either from porcine or bovine myocardium. The Ca^2+ calmodulin-stimulable PDE I was isolated from porcine aorta, porcine brain or preferably from bovine aorta The c-GMP-specific PDE V was obtained from porcine small intestine, porcine aorta, human blood platelets and preferably from bovine aorta. Purification was carried out by anion exchange chromatography on Mono® Pharmacia essentially according to the method of M. Hoey and Miles D. Houslay, Biochemical Pharmacology, Vol. 40, 193-202 (1990) and C. Lugman et al., Biochemical Pharmacology Vol. 35, 1743-1751 (1986).
(§2) The enzyme activity was determined in a test mixture of 100 μl in 20 mM tris/HCl buffer ph 7.5 which contains 5 MM MgCl2, 0.1 mg/ml of bovine serum albumin and either 800 Bq of ^3 HcAMP or ^3 HcGMP. The final concentration of the corresponding nucleotides is 10^-6 mol/l. The reaction is started by addition of the enzyme; the amount of enzyme is proportioned such that during the incubation time of 30 min about 50% of the substrate is reacted. In order to test the cGMP-stimulable PDE II, ^3 HcAMP is used as a substrate and 10^-6 mol/l of unlabelled cGMP is added to the mixture. In order to test the Ca calmodulin-dependent PDE I, additionally CaCl2, 1 μM and calmodulin, 0.1 μM are added to the reaction mixture. The reaction is stopped by addition of 100 μl of acetonitrile which contains 1 mM cAMP and 1 mM AMP. 100 μl of the reaction mixture are separated on an HPLC and the cleavage products are quantitatively determined "on-line" using a flow scintillation counter. The substance concentration is measured at which the reaction rate is decreased by 50%. Additionally, the "phosphodiesterase [3H] cAMP-SPA enzyme assay" and the "phosphodiesterase [^3 H] cGMP-SPA enzyme assay" from Amersham Life Science were used for testing. The test was carried out according to the experimental protocol indicated by the manufacturer. For activity determination of the PDE2, the [^3 H] cAMP SPA assay was used, 10^-6 M cGMP being added to the reaction mixture to activate the enzyme. For the measurement of PDE1, calmodulin, 10^-7 M and CaCl2, 1 μM were added to the reaction mixture. The PDE5 was measured using the [^3 H] cGMP SPA assay.

[2] = tested on: PDE I (Ca^2+ calmodulin-stimulable); assay: Inhibition of the phosphodiesterases in vitro: PDE I; assay type: biochemical, porcine aorta, porcine brain or preferably bovine aorta; settings: CaCl2 1 μM and calmodulin 0.1 μM added; nucleotide 10^-6 mol/l; pH 7.5; 30 min
Procedure: as §1, §2

[3] = tested on: PDE V (c-GMP-specific); assay: Inhibition of the phosphodiesterases in vitro: PDE V; assay type: biochemical; settings: nucleotide 10^-6 mol/l, pH 7.5, 30 min; or [^3H] cGMP SPA assay
Procedure: as §1, §2

IC50 [1] [nM] | IC50 [2] [nM] | IC50 [3] [nM] | Compound
200 | 500 | 300 | CC(CCCc1ccccc1)n1cnc2c(=O)[nH]c(Cc3ccccc3)nc21 (stereo not drawn) [Example 1]
100 | 3000 | 800 | CC(O)C(CCCc1ccccc1)n1cnc2c(=O)[nH]c(Cc3ccccc3)nc21 (stereo not drawn) [Example 33]
20 | ~500 | 500 | CC(O)C(CCCc1ccccc1)n1cnc2c(=O)[nH]c(Cc3ccc(Cl)c(Cl)c3)nc21 (stereo not drawn) [Example 34]
60 | 3000 | 500 | CC(O)C(CCCc1ccccc1)n1cnc2c(=O)[nH]c(Cc3ccc(F)cc3)nc21 (stereo not drawn) [Example 69]
80 | 100 | 1000 | CC(CCCc1ccccc1)n1cnc2c(=O)[nH]c(Cc3ccc(-c4ccc(F)cc4)cc3)nc21 (stereo not drawn) [Example 80]
20 | 100 | 500 | CC(CCCc1ccccc1)n1cnc2c(=O)[nH]c(Cc3ccc(-c4cccc(N)c4)cc3)nc21 (stereo not drawn) [Example 82]
20 | 300 | 500 | CC(CCCc1ccccc1)n1cnc2c(=O)[nH]c(Cc3ccc(-c4ccsc4)cc3)nc21 (stereo not drawn) [Example 83]
20 | 100 | 1000 | CC(CCCc1ccccc1)n1cnc2c(=O)[nH]c(Cc3ccc(-c4cccnc4)cc3)nc21 (stereo not drawn) [Example 84]
4 | 1000 | 1000 | COc1ccc(Cc2nc3c(ncn3C(CCCc3ccccc3)C(C)=O)c(=O)[nH]2)cc1OC (stereo not drawn) [Example 100]
3 | 500 | 1000 | CC(O)C(CCCc1ccccc1)n1cnc2c(=O)[nH]c(Cc3ccc(NC(=O)C4CCN(C(=O)OCc5ccccc5)CC4)cc3)nc21 (stereo not drawn) [Example 121]
4 | 500 | 1000 | CCOC(=O)N1CCC(C(=O)Nc2ccc(Cc3nc4c(ncn4C(CCCc4ccccc4)C(C)O)c(=O)[nH]3)cc2)CC1 (stereo not drawn) [Example 122]
1 | 500 | 500 | COc1ccc(Cc2nc3c(ncn3C(CCCc3ccccc3)C(C)O)c(=O)[nH]2)cc1S(=O)(=O)N1CCC(C(=O)O)CC1 (stereo not drawn) [Example 138]
